Columns and labels:
MOLM-13 xenograft model = assay: Disseminated MOLM-13 xenograft survival study; assay type: in vivo, mice; settings: for Median survival: MOLM-13, NOD/SCID mice, vehicle=19 days; for survival compared to vehicle alone: MOLM-13
Description: (§1) LEED models oral administration of AZA, while HELD models intravenous or subcutaneous administration of AZA.
The animals were fed ad libitum water (reverse osmosis, 1 ppm Cl), and NIH 31 Modified and Irradiated Lab Diet® consisting of 18.0% crude protein, 5.0% crude fat, and 5.0% crude fiber. The mice were housed on irradiated Enrich-o'cobs™ Laboratory Animal Bedding in static microisolators on a 12-hour light cycle at 20-22° C. (68-72° F.) and 40-60% humidity.
(§2) On each day of dosing, an appropriate amount of gilteritinib was dissolved in 0.5% methylcellulose in DI water to yield a dosing solution at 0.4 mg/mL. Each week, an appropriate amount of venetoclax was dissolved in 10% ethanol:30% PEG400:60% phosal 50 propylene glycol to yield a dosing solution at 10 mg/mL. […] Each test mouse received 5×10^6 MOLM-13 cells or 10^7 MV4-11 cells (0.2 mL cell suspension) by tail vein injection. Dosing was initiated three days after tumor cell inoculation, which was designated as Day 1 of the study. NOD/SCID mice (n=9-12/group) were randomized according to body weight and dosed. […] Vehicle was administered both IP and PO. The dosing volume for all treatments was 10 mL/kg, scaled to the weight of each individual animal.
(§3) Animals were monitored individually for an endpoint of moribundity due to progression of the leukemia. Full hind limb paralysis, severe ocular proptosis, or moribundity was considered sufficient for euthanasia due to tumor progression. Moribund animals were defined as sick animals unable to reach food and water. These deaths were classified as death on survival study. The time to endpoint (TTE), in days, was recorded for each mouse that died of its disease or was euthanized due to extensive tumor progression. […] An animal classified as having died from treatment-related (TR) causes was assigned a TTE value equal to the day of death. An animal classified as having died from non-treatment-related (NTR) causes, or used for sampling before endpoint, was excluded from TTE calculations and all further analyses. The median TTE value was calculated for each group. The median TTE of treated mice was expressed as a percentage of the median TTE of the control mice (% T/C), and the increase in life span (ILS) was calculated as: ILS=% T/C−100%, where T=median TTE treated, and C=median TTE control. Thus, if T=C, ILS=0%.
Animals were weighed daily on Days 1-5, then twice per week until the completion of the study. […] Individual body weight loss was monitored as per protocol and any animal that exceeded the limits for acceptable body weight loss was euthanized. Group mean body weight loss also was monitored as per protocol. Dosing was suspended in any group that exceeded the limits for acceptable mean body weight loss. If mean body weight recovered, then dosing may be resumed in that group, but at a lower dosage or less frequent dosing schedule. Acceptable toxicity for the maximum tolerated dose was defined as a group mean body-weight loss of less than 20% during the study and not more than one TR death among ten treated animals. […] A death was classified as NTR if there was no evidence that death was related to treatment side effects or tumor progression. Non-treatment-related deaths may be further characterized based on cause of death. A death may be classified as NTRa if it resulted from an accident or human error. A death may be classified as NTRu if the cause of death is unknown and there is no available evidence of death related to treatment side effects, metastasis, accident or human error, although death due to these etiologies cannot be excluded. Survival was analyzed by the Kaplan-Meier method, based on TTE values. The logrank (Mantel-Cox) and Gehan-Breslow-Wilcoxon tests determined the significance of the difference between the overall survival experiences (survival curves) of two groups, based on TTE values.
These experiments were repeated with a second FLT3-ITD cell line, MOLM-13.

MCL-1 = assay: Western blot of MCL-1 in AML cell lines; assay type: cell-based
Description: Lysates were quantified using a bicinchoninic acid (BCA) kit (Piece/Thermo Fisher, Waltham, MA). 20 to 30 μg protein was resolved on a 4-12% SDS-PAGE gel, transferred to PVDF membranes (80V/90 minute by wet-transfer), and blocked with Oddysey TBS blocking buffer for 1 hour and then probed with appropriate primary antibodies overnight at 4° C. using dilution as recommended by manufacturer. Membranes were washed three times for a total of 30 minutes and then incubated with secondary antibodies at room temperature in the dark for 1 hour. After another three washes, Odyssey infrared imaging system and companion software (LI-COR biosciences, Lincoln, NE, USA) were used to scan immunoblot membranes and to quantify band intensity according to the manufacturer's instructions. The ratio of proteins of interest to loading control in treated samples was normalized to the corresponding ratio in untreated cells. Antibodies used for immunoblotting were purchased from the following sources: BCL-2 (sc-7382), MCL1- (sc-819) from Santa Cruz Biotechnology (Dallas, TX, USA, Bim (2819), caspase-3 (9664) from Cell Signaling Technology; beta-Actin (A2228) from Sigma-Aldrich; DNMTI (ab188453) from AbCam; TRDye 680 goat anti-rabbit and IRDye 800 goat anti-mouse secondary antibodies (#925-68073 and #925-32212) were purchased from Li-COR Biosciences (Lincoln, NE).

MV4-11 xenograft models = assay: Disseminated MV4-11 xenograft survival study; assay type: in vivo; settings: MV4-11, NCG mice, vehicle=29.5
Description: as §1
as §2, with “NOD/SCID mice (n=9-12/group) were randomized according to body weight and dosed.” left out
as §3
Animals were weighed daily on Days 1-5, then twice per week until the completion of the study. […] Individual body weight loss was monitored as per protocol and any animal that exceeded the limits for acceptable body weight loss was euthanized. Group mean body weight loss also was monitored as per protocol. Dosing was suspended in any group that exceeded the limits for acceptable mean body weight loss. If mean body weight recovered, then dosing may be resumed in that group, but at a lower dosage or less frequent dosing schedule. […] Survival was analyzed by the Kaplan-Meier method, based on TTE values. The logrank (Mantel-Cox) and Gehan-Breslow-Wilcoxon tests determined the significance of the difference between the overall survival experiences (survival curves) of two groups, based on TTE values.

BaF-FLT3-ITD = assay: Cell viability assay (Cell Titer-Glo), BaF3 cells expressing FLT3; assay type: cell-based; settings: Mus musculus
BaF-FLT3(WT) = assay: as above; assay type: cell-based; settings: Mus musculus
BaF-FLT3(D835Y) = assay: as above; assay type: cell-based; settings: Mus musculus

With `Nc1ncn([C@@H]2O[C@H](CO)[C@@H](O)[C@H]2O)c(=O)n1` [5-azacytidine, 4-amino-1-B-D-ribofuranosyl-1,3,5-triazin-2(1H)-one] the Median survival (MOLM-13 xenograft model; HELD 5-azacytidine 3 mg/kg IP qd×5, alone or with midostaurin 100, gilteritinib 4 or venetoclax 100 mg/kg PO qd×21) was 32 days, the Median survival (MOLM-13 xenograft model; LEED 5-azacytidine 1 mg/kg IP qd×15, alone or with midostaurin 100, gilteritinib 4 or venetoclax 100 mg/kg PO qd×21) was 36 days and the “survival compared to vehicle alone” value (MOLM-13 xenograft model; HELD 5-azacytidine 3 mg/kg IP qd×5, alone or in combination) was “statistically significantly increases in survival”. For the same molecule, the “survival compared to vehicle alone” value (MOLM-13 xenograft model; LEED 5-azacytidine 1 mg/kg IP qd×15, alone or in combination) was “statistically significantly increases in survival”, the “start of MCL-1 degradation after treatment” value (from here on “start of MCL-1 degradation”) (MCL-1; KG1α) was 6 h and the “start of MCL-1 degradation” value (MCL-1; MV4-11) was 6 h. For the same molecule, the MCL-1 degradation (MCL-1; OCI-AML2) was “did not lead to any degradation of MCL-1”, the “start of MCL-1 degradation” value (MCL-1; THP-1) was 16 h and the “extent of MCL-1 degradation” value (MCL-1; THP-1, by 24 hours) was “incomplete degradation by 24 hours”. It also gave a Median survival (MV4-11 xenograft models; HELD 5-azacytidine 3 mg/kg qd×5, alone or with venetoclax or midostaurin 100 mg/kg qd×21) of 35, a Median survival (MV4-11 xenograft models; LEED 5-azacytidine 1 mg/kg qd×5×3, alone or with venetoclax or midostaurin 100 mg/kg qd×21) of 35 and an EC50 (BaF-FLT3-ITD) of 598 nM. It also gave an EC50 (BaF-FLT3(WT)) of 189 nM and an EC50 (BaF-FLT3(D835Y)) of 456 nM.
